In ChEMBL document CHEMBL4342462, “Discovery and Characterization of 2,5-Substituted Benzoic Acid Dual Inhibitors of the Anti-apoptotic Mcl-1 and Bfl-1 Proteins” (J Med Chem, 2020):
Activity calls are given as the source filed them. The calls are words filed in the database; no cut-off is given here.

Assays:
[1] = target: T1, Induced myeloid leukemia cell differentiation protein Mcl-1 (Homo sapiens, UniProt Q07820)
Description: Inhibition of N-terminal His6-tagged human Mcl1 expressed in Escherichia coli Rosetta2 DE3 by fluorescent labeled Flu-Bid peptide based fluorescence polarization assay

Bcl-2-related protein A1 [2] = target: T2, Bcl-2-related protein A1 (Homo sapiens, UniProt Q16548)
T2 sequence (Q16548 whole entry): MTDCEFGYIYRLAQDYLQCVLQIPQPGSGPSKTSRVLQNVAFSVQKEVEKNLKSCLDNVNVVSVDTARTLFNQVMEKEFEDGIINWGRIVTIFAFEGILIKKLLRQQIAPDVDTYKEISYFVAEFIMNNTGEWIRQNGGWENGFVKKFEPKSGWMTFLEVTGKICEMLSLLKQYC

[3] = target: T1, Induced myeloid leukemia cell differentiation protein Mcl-1; remark: listed apart in the source
Description: Binding affinity to immobilized biotin-labeled and N-terminal His6-tagged human Mcl-1 expressed in Escherichia coli Rosetta2 DE3 by biolayer interferometry

[4] = target: T3, Apoptosis regulator Bcl-2 (Homo sapiens, UniProt P10415); experiment: Inhibition of Bcl2 (unknown origin) expressed in Eu-Myc cells assessed as induction of cell death at 75 to 100 uM incubated for 24 hrs by violet LIVE/DEAD fixable dead cell staining based flow cytometry
T3 sequence (P10415 whole entry): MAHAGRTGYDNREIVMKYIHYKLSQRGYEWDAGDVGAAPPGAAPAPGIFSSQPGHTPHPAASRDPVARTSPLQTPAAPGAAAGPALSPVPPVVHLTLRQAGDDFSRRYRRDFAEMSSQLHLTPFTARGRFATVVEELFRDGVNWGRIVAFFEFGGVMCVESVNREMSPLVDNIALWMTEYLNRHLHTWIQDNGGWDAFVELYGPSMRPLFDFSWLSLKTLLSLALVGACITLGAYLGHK

Bcl-2-like protein 1 [5] = target: T4, Bcl-2-like protein 1 (Homo sapiens, UniProt Q07817)
T4 sequence (Q07817 whole entry): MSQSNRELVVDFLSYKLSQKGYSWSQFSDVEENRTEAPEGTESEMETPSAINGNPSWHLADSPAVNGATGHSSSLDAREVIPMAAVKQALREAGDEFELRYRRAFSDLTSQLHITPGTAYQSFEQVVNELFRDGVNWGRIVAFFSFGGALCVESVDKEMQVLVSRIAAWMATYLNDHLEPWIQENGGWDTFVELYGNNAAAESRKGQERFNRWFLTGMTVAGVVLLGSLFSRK

Bcl-2-like protein 1 [6] = target: T4, Bcl-2-like protein 1; experiment: Inhibition of Bcl-xL (unknown origin) expressed in Eu-Myc cells assessed as induction of cell death at 75 to 100 uM incubated for 24 hrs by violet LIVE/DEAD fixable dead cell staining based flow cytometry
[7] = target: T5, Bcl-2-related protein A1 (Homo sapiens) (UniProt Q16548)
T5 sequence (whole entry): T2 sequence (Q16548 whole entry)

Bcl-2-related protein A1 [8] = target: T2, Bcl-2-related protein A1; remark: listed apart in the source
[9] = target: T3, Apoptosis regulator Bcl-2

T1 sequence (Q07820 whole entry): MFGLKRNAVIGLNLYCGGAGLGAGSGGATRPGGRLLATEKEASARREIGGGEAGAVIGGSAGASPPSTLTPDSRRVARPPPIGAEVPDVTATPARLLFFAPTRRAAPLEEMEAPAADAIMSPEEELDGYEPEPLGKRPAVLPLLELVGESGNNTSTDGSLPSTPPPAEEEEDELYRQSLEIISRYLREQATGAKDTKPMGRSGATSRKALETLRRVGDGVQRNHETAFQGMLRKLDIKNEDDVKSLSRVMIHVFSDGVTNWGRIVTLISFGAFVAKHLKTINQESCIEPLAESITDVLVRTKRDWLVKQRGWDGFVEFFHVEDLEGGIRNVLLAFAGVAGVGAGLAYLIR

| Structure (SMILES) | Ki [1] | Ki (Bcl-2-related protein A1 [2]) | other results |
| --- | --- | --- | --- |
| O=C(CCc1ccccc1)Nc1ccc(NS(=O)(=O)c2ccccc2)c(C(=O)O)c1 | 19000 nM | 62000 nM | – |
| CC(C)(C)c1ccc(N2CCN(S(=O)(=O)Nc3ccc(SCCc4ccccc4)cc3C(=O)O)CC2)cc1 | 73 nM | 84 nM | Kd [3]: 490 nM; inhibition [4]: Active; Ki (Bcl-2-like protein 1 [5]): 3500 nM; inhibition (Bcl-2-like protein 1 [6]): Active; Activity [7]: Active; Kd (Bcl-2-related protein A1 [8]): 920 nM; Ki [9]: 1200 nM |
| O=C(O)c1cc(SCCc2ccccc2)ccc1NS(=O)(=O)N1CCN(Cc2ccccc2)CC1 | 840 nM | 1000 nM | – |
| CC(C)(C)c1ccc(N2CCN(S(=O)(=O)Nc3ccc(SCCc4cccc(O)c4)cc3C(=O)O)CC2)cc1 | 290 nM | 250 nM | – |
| O=C(O)c1cc(SCCc2ccccc2)ccc1NS(=O)(=O)c1cccs1 | 2000 nM | 3400 nM | – |
| O=C(O)c1cc(SCCc2ccccc2)ccc1NS(=O)(=O)CCc1ccccc1 | 1700 nM | 1700 nM | – |
| Nc1ccc(SCCc2ccccc2)cc1C(=O)O | 3400 nM | 3700 nM | – |
| COc1cccc(CCSc2ccc(NS(=O)(=O)N3CCN(c4ccc(C(C)(C)C)cc4)CC3)c(C(=O)O)c2)c1 | 74 nM | 100 nM | Ki (Bcl-2-like protein 1 [5]): 6700 nM; Ki [9]: 1200 nM |
| O=C(Nc1ccc(SCCc2ccccc2)cc1C(=O)O)c1ccccc1 | 2700 nM | 4600 nM | – |
| O=C(O)c1cc(SCCc2ccccc2)ccc1NS(=O)(=O)c1ccccc1 | 1500 nM | 1600 nM | Ki (Bcl-2-like protein 1 [5]): > 25000 nM; Ki [9]: > 25000 nM |
| O=C(CCCSc1ccc(NS(=O)(=O)c2ccccc2)c(C(=O)O)c1)Nc1ccccc1 | 32800 nM | > 70000 nM | – |
| O=C(O)c1cc(SCCc2ccccc2)ccc1NS(=O)(=O)c1ccc(C2CCCCC2)cc1 | 87 nM | 170 nM | – |
| O=C(Cc1ccccc1)Nc1ccc(NS(=O)(=O)c2ccccc2)c(C(=O)O)c1 | 70400 nM | > 70000 nM | – |
| O=C(O)c1cc(SCCc2ccccc2)ccc1NS(=O)(=O)c1ccc(Br)cc1 | 810 nM | 810 nM | – |
| O=C(O)c1cc(SCc2ccccc2)ccc1NS(=O)(=O)c1ccccc1 | 2600 nM | 3000 nM | – |
| O=C(O)c1cc(SCCc2ccccc2)ccc1NS(=O)(=O)c1ccc(-c2ccccc2)nc1 | 200 nM | 280 nM | – |
| O=C(O)c1cc(SCCc2ccccc2)ccc1NS(=O)(=O)N1CCN(c2ccccc2)CC1 | 570 nM | 760 nM | Ki (Bcl-2-like protein 1 [5]): 6600 nM; Ki [9]: 11700 nM |
| O=C(O)c1cc(NCCc2ccccc2)ccc1NS(=O)(=O)c1ccccc1 | 4700 nM | 3800 nM | – |
| CC(C)(C)c1ccc(N2CCN(S(=O)(=O)Nc3ccc(SCCC(=O)Nc4ccccc4)cc3C(=O)O)CC2)cc1 | 950 nM | 1100 nM | Ki (Bcl-2-like protein 1 [5]): > 25000 nM |
| O=C(O)c1ccccc1NS(=O)(=O)c1ccccc1 | 47800 nM | > 100000 nM | – |
| O=C(O)c1cc(OCCc2ccccc2)ccc1NS(=O)(=O)c1ccccc1 | 6100 nM | 10600 nM | – |
| O=C(O)c1cc(SCCc2ccccc2)ccc1NS(=O)(=O)c1ccc(-c2ccccc2)cc1 | 90 nM | 150 nM | – |
| O=C(O)c1cc(SCCc2ccccc2)ccc1NS(=O)(=O)N1CCC(c2ccccc2)CC1 | 330 nM | 390 nM | – |
| O=C(CCSc1ccc(NS(=O)(=O)c2ccccc2)c(C(=O)O)c1)Nc1ccccc1 | 13100 nM | 14800 nM | – |
